Entries after “also recorded” stand apart in the source; their conditions may differ.
Columns and labels:
SOCE [1] = system: SOCE; set-up: method as in PMID 30347159; conditions: cited from earlier work
cerulein-induced AP = system: cerulein-induced AP; set-up: method as in PMID 30347159; conditions: rodents; cited from earlier work
SOCE [2] = assay: SOCE inhibition in HEK cells by fluorescence microscopy (calcium imaging); type: cell-based, human; conditions: HEK cells, Figure S1
Procedure: With these two compounds in hand, two click reactions were performed and compounds 9 and 18 (Table 1), displaying the same substructures as the reference compound Synta66, were obtained with a yield of 31 and 60%, respectively. 9 and 18 were tested for activity on SOCE in HEK cells, a human embryonic kidney (HEK) cell line, by fluorescence microscopy, as described elsewhere.[16] After 600 s, Ca^2+ was added and intracellular levels were measured.
Screening, dose–response experiments, and calcium imaging experiments were performed in HEK cells (ATCC, Rock, ville, MD, USA), as already reported elsewhere.[16]

[3] = Thermodynamic aqueous solubility and solubility in in vivo vehicles; type: physicochemical
Procedure: Thermodynamic aqueous solubility was determined as follows: about 3 mg of the tested compound was weighed and dissolved in 3 mL of deionized water. After vigorous mixing by vortex followed by sonication for 5 min, the resulting supersaturated solution was shaken horizontally overnight at 25 °C. After filtration over a syringe filter (pore 0.22 μm, regenerate cellulose membrane), 100 μL of DMSO was added to 1 mL of the filtered solution. The resulting solution was further diluted in water (typically 1:10) before LC–UV analysis. Aqueous solubility was calculated comparing the filtrate peak area to those of the tested compound DMSO solutions. Solubility in aqueous media was also checked in the following vehicles at the target concentration of 6 mg/mL: saline + 10% DMSO, saline + 10% DMSO + 20% PEG400, saline + 5% ethanol.

[4] = In vitro metabolic stability in mouse liver microsomes; type: in vitro ADME; conditions: MLMs, 50 μM substrate, 3 mM GSH trapping agent, HRMS
Procedure: Next, the in vitro metabolic stability of the five candidates (31, 34, 36, 38, and 40) was evaluated in mouse liver microsomes (MLMs) activated by NADPH by measuring the substrate residual after 1 h. For comparative purposes, Synta66 was incubated in the same conditions.
Phase I and II (glucuronidation) incubations were performed in MLMs (pooled male mouse CD-1, protein concentration: 20 mg/mL, purchased from Corning B.V. Life Sciences—Amsterdam, The Netherlands) using the procedure previously described[16] with the following modifications: 5 μM substrate concentration for the determination of the residual percentage and 50 μM for 34 metabolite characterization by HRMS; when metabolic activation was studied, 3 mM GSH trapping agent was added in the incubation mixture.

PK analysis in mice = type: in vivo; conditions: C57BL/6, mouse, plasma, 7 mg/kg
Procedure: To further characterize the compound, a PK analysis was performed in mice. Briefly, mice were injected with 34 (i.v., 7 mg/kg, once) and serial blood sampling was performed.
(§1) All animal experiments observe the regulations in Italy (D.M. 116192) as well as the EU regulations (O.J. of E.C. L 358/1 12/18/1986). Compound 34 was injected i.v. at a dose of 7 mg/kg in C57BL/6 mice. Blood was collected after 5, 15, 30, 60, 120, 240, 360 min and 24 h. Aliquots of plasma samples were analyzed as previously reported.[16] AP was induced in mice by i.p. injections of cerulein, as already reported elsewhere.[16]
In vivo PK evaluation of compound 34.
Table S6. PK parameters of single administration of compound 34 (e.v., 7 mg/kg, n=5)
Parameter Unit Value S.D.

[5] = system: cerulein-induced murine model of AP; assay: Cerulein-induced murine model of AP; type: in vivo, mouse; conditions: 10 mg/kg i.p. 30 and 150 min after first cerulein injection; tissue collected at 5 h
Procedure: The PK profile of our candidate prompted us to investigate its efficacy in a cerulein-induced murine model of AP.[29]
as §1

HEK cells = assay: HEK cell viability after 72 h at 50 μM with or without uridine (involvement of DHODH); conditions: up to 60 μM
[6] = intravenous, Table S6, single administration, e.v., n=5
[7] = iv, mice, i.v., once, read-out: half-life (t1/2) (converted)

| SMILES | IC50 (SOCE [1]) [µM] | efficacy in cerulein-induced AP (cerulein-induced AP) | AUC compared to the reference compound Synta66 (SOCE [2]) | AUC, peak amplitude, and slope of the Ca2+-rise (SOCE [2]; selected compounds) | solubilization at 6 mg/mL in saline containing 10% DMSO + 20% PEG400 ([3]; nominal concentration 6 mg/mL, vehicle for in vivo administration) | increase in aqueous solubility of 34 compared to 36 ([3]; sodium salts) [fold] | solubility ([3]; thermodynamic, deionized water, 25 °C overnight, biphenyl triazoles as sodium salts, read-out: H2O solubility) [µg/mL] | formation of glutathione (GSH) adducts [4] | Cmax (PK analysis in mice; [6]) [ng/mL] | Tmax (PK analysis in mice; [6]) [h] | Cmax (PK analysis in mice; iv, mice, once) [ng/mL] | clearance at 24 h (PK analysis in mice; iv, mice, i.v., once, read-out: clearance (Cl) (converted)) [mL/min/kg] | half-life (PK analysis in mice; [7]) [h] | half-life at 24 h (PK analysis in mice; [7]) [h] | histological scores of pancreatic tissue (H&E), inflammation and edema [5] | cytotoxicity in HEK cells up to 60 μM (HEK cells) |
| --- | --- | --- | --- | --- | --- | --- | --- | --- | --- | --- | --- | --- | --- | --- | --- | --- |
| CCCC(C)OC(=O)c1cnn(-c2ccc(-n3cc(-c4cccc(C(=O)O)c4)nn3)cc2)c1C(F)(F)F (stereo not shown) [Compound 3] | 4.4 | demonstrated efficacy; also recorded: significantly ameliorate cerulein-induced AP in rodents without signs of toxicity | – | – | – | – | – | – | – | – | – | – | – | – | – | – |
| COc1cccc(-c2ccc(-n3cc(-c4cccc(C(=O)O)c4)nn3)cc2)c1OC [Compound 34, 3-(1-(2′,3′-Dimethoxy-[1,1′-biphenyl]-4-yl)-1H-1,2,3-triazol-4-yl)benzoic Acid] | – | – | significantly reducing the AUC | induced a drop in the three parameters | limpid solution | 80 | 1530 | did not highlight the formation of glutathione (GSH) adducts | 16800 | 0.2 | 16800 | 8.33 | 3.21 | 3.2 | significantly ameliorate the histological scores; also recorded: efficacy in a mouse model of cerulein-induced AP | no detectable cytotoxicity |

— PMC7735735, “Store-Operated Calcium Entry as a Therapeutic Target in Acute Pancreatitis: Discovery and Development of Drug-Like SOCE Inhibitors” (Journal of Medicinal Chemistry, 2020)
